Here are results for 6 compounds from patent publication US9615577B2, “Herbicidally active cyclic dione compounds, or derivatives therefor, substituted by a phenyl which has an alkynyl-containing substituent” (Syngenta Limited, priority 2012, dated 2017).

Holding throughout (type): in vivo
Assay [1] deals with Alopecurus myosuroides (ALOMY). The experiment in a line: Test 1A glasshouse assay for herbicidal activity, post-emergence. The conditions noted are these: 312 h, evaluated after 13 days, read-out: percentage phytotoxicity ALOMY. In short, it runs like this:
(§1)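 Test plants grew from seed in standard soil under controlled glasshouse conditions (24/16 °C, 14 h light, 65% humidity) and received an aqueous acetone (50:50) spray with 0.5% Tween 20, either one day after sowing or after eight days. Damage was rated visually as percent phytotoxicity 13 days later.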

Assay [2] relates to Setaria faberi (SETFA). The description is as above. The conditions noted are these: 312 h, evaluated after 13 days, read-out: percentage phytotoxicity SETFA. The gist of the method: as §1
Assay [3] has as its system Beta vulgaris (BEAVA, sugar beet). The experiment in a line: Test 1B glasshouse assay for herbicidal activity, pre-emergence. To be noted: 480 h, 20 DAA, read-out: percentage phytotoxicity BEAVA. As for the experimental part:
(§2) Seeds of a variety of monocotyledonous and dicotyledonous test plants are sown in standard soil in pots. The plants are cultivated for one day (for pre-emergence) or for about 12 days (range=10-13 days) (for post-emergence) under controlled conditions in a glasshouse (warm climate species at 24/18° C., cool climate species at 20/16° C., both at day/night; 16 hours light; 65% humidity).
(§3) An “instant formulation”, known as the “IF50”, containing 50 g/liter (i.e. 5% w/v) of the “technical” (i.e. unformulated) active ingredient is prepared by dissolving the active ingredient in a mixture of organic solvents and emulsifier, details of which are provided in the Table below. This IF50 is then mixed with a small, variable amount of acetone to aid dissolution, before addition of a 0.2% v/v aqueous solution of the adjuvant X-77 (which is a mixture of alkyl aryl polyoxyethylene glycols and free fatty acids in isopropanol, CAS Registry number 11097-66-8), as the aqueous diluent, to form an aqueous spray solution which contains a predetermined concentration of the active ingredient (which varies depending on the application rate of the active ingredient to the plants) and 0.2% v/v of the adjuvant X-77. This aqueous spray solution is then sprayed onto the plants, after one day's cultivation (for pre-emergence) or after about 12 days' cultivation (for post-emergence).
(§4) The test plants are then grown on, in a glasshouse (greenhouse) under controlled conditions (at either 24/18° C. or 20/16° C. (day/night) as mentioned above; 16 hours light; 65% humidity) and are watered twice daily. Either 15 days after application of the herbicide (15 DAA) (for post-emergence), or 20 days after application of the herbicide (20 DAA) (for pre-emergence), the test plants are evaluated visually, and an assessed percentage phytotoxicity score is given for each herbicidal application on each plant species (where 100%=total damage to plant; 0%=no damage to plant).
(§5) Cool climate crop plants: Triticum aestivum (TRZAW, winter wheat), Brassica napus (BRSNN, rape, also called oilseed rape or rapeseed), Beta vulgaris (BEAVA, sugar beet).

In assay [4] the test system is Brassica napus (BRSNN, rape). Described as above. The conditions noted are these: 480 h, 20 DAA, read-out: percentage phytotoxicity BRSNN. As to the method:
as §2, §3, §4, §5

Assay [5] concerns Triticum aestivum (TRZAW, winter wheat). The description is as above. The conditions noted are these: 480 h, 20 DAA, read-out: percentage phytotoxicity TRZAW. As for the experimental part:
as §2, §3, §4, §5

The subject of assay [6] is Glycine max (GLXMA, soybean). Described as above. To be noted: 480 h, 20 DAA, read-out: percentage phytotoxicity GLXMA. As for the experimental part: as §2, §3, §4
Warm climate crop plants: Glycine max (GLXMA, soybean).

Assay [7] concerns Alopecurus myosuroides (ALOMY). The description is as above. The conditions noted are these: 480 h, 20 DAA, read-out: percentage phytotoxicity ALOMY. As to the method:
as §2, §3, §4
(§6) Cool climate (“cool season”) grassy monocotyledonous weeds: Alopecurus myosuroides (ALOMY), Avena fatua (AVEFA), Lolium perenne (LOLPE).

Assay [8] has as its system Avena fatua (AVEFA). Described as above. The conditions noted are these: 480 h, 20 DAA, read-out: percentage phytotoxicity AVEFA. As for the experimental part: as §2, §3, §4, §6
Assay [9] has as its system Lolium perenne (LOLPE). Described as above. The conditions noted are these: 480 h, 20 DAA, read-out: percentage phytotoxicity LOLPE. As to the method: as §2, §3, §4, §6
For assay [10], the system named is Digitaria sanguinalis (DIGSA). The assay is described as above. The conditions noted are these: 480 h, 20 DAA, read-out: percentage phytotoxicity DIGSA. As for the experimental part:
as §2, §3, §4
(§7) Warm climate (“warm season”) grassy monocotyledonous weeds: Setaria faberi (SETFA), SORVU (Sorghum bicolor (L.) Moench ssp. Bicolor, or Sorghum vulgare Pers.), Digitaria sanguinalis (DIGSA), Echinochloa crus-galli (ECHCG), and Brachiaria plantaginea (BRAPL).

Assay [11] deals with Echinochloa crus-galli (ECHCG). The description is as above. The conditions noted are these: 480 h, 20 DAA, read-out: percentage phytotoxicity ECHCG. As to the method:
as §2, §3, §4, §7

Assay [12] has as its system SORVU (Sorghum bicolor (L.) Moench ssp. Bicolor, or Sorghum vulgare Pers.). Described as above. The conditions noted are these: 480 h, 20 DAA, read-out: percentage phytotoxicity SORVU. As for the experimental part: as §2, §3, §4, §7
Assay [13] has as its system Setaria faberi (SETFA). Described as above. The conditions noted are these: 480 h, 20 DAA, read-out: percentage phytotoxicity SETFA. As to the method:
as §2, §3, §4, §7

Assay [14] deals with Echinochloa crus-galli (ECHCG). The experiment in a line: Test 1B glasshouse assay for herbicidal activity, post-emergence. To be noted: Echinochloa crus-galli; for pest or weed control at 30 g/ha: 30 g/ha application rate; for pest or weed control at 125 g/ha: 125 g/ha application rate. As to the method: as §2, §3, §4, §7
Note: The herbicidal activity data (e.g. post-emergence) shown above in Biological Example 1B for Comparator compounds X-9 and X-10 is thought likely to have been measured some years ago, probably using a variant of the above-described test method. Also, for the post-emergence activity of X-9 and X-10 it is not currently known exactly how many days after application of the herbicide the phytotoxicity on the plants was measured.

In the case of `CC#Cc1cc(C)c(C2C(=O)CC(CC3CCOCC3)CC2=O)c(C)c1` (stereo not shown) [Compound A-9], the pest or weed control at 250 g/ha in assay [1] turned out to be 100%; in [2] it was 90%. In addition, the plant injury at 125 g/ha was found to be 20% in [3], 80% in assay [4], 20% in [5] and 10% in assay [6]. The pest or weed control at 125 g/ha was found to be 80% in assay [7]; 80% in assay [8]; 100% in assay [9]; 100% in assay [10]; 90% in assay [11]; 90% in assay [12]. Further, the pest or weed control at 125 g/ha in [13] came to 100%. The same compound gave a pest or weed control at 30 g/ha in [14] of 100%.

With `CC#Cc1cc(C)c(C2C(=O)C3CCC(C3)C2=O)c(OC)c1` (stereo not shown) [Compound A-10], the pest or weed control at 250 g/ha in assay [1] and in assay [2] was 100% each time. For the same compound, the plant injury at 125 g/ha in assay [3] was 0%; in assay [4] it was 0%; in assay [5], 20%; in [6], 0%. Further, the pest or weed control at 125 g/ha in assay [7] was found to be 80%; in assay [8] it was 60%; in assay [9] it was 100%; in assay [10], 90%; in assay [11] it was 90%; in [12] it was 80%. For the same compound, the figures for the pest or weed control at 125 g/ha in [13] and in assay [14] were 80% and 100%, respectively. Besides, in [14], the pest or weed control at 30 g/ha stood at 90%.

As to `CC#Cc1cc(Cl)c(C2C(=O)C3CCC(C3)C2=O)c(OC)c1` (stereo not shown) [Compound A-12], the pest or weed control at 62.5 g/ha in [1] (62.5 g/ha) is 80%; in assay [2] (62.5 g/ha) it was 100%. Also, the pest or weed control at 250 g/ha in assay [1] was 90 to 100%; in assay [2] it was 100%; in assay [7] it was 60%; in assay [8] it was 50%; in [9], 100%; in [10] it was 100%. Also, the pest or weed control at 250 g/ha in assay [11] was 100%; in assay [12], 90%; in assay [13], 100%. The plant injury at 250 g/ha in [3] amounted to 10%; in [4], 20%; in assay [5] it was 30%; in [6], 40%. For the same compound, the pest or weed control at 30 g/ha in [14] came out at 90%. The same compound gave a pest or weed control at 125 g/ha in assay [14] of 100%.

For the compound `CC#Cc1cc(C)c(C2C(=O)CC(c3ccccn3)CC2=O)c(C)c1` (stereo not shown) [Compound A-13], the pest or weed control at 30 g/ha in assay [1] was 70%; in [2], 90%. In addition, the pest or weed control at 250 g/ha in assay [1] was 100%; in [2] it was 100%; in assay [7], 80%; in assay [8] it was 30%; in [9], 100%; in assay [10], 100%. Further, the pest or weed control at 250 g/ha in assay [11] came out at 90%; in assay [12], 80%; in assay [13], 80%. In addition, the plant injury at 250 g/ha is 10% in [3], 70% in assay [4], 20% in assay [5] and 20% in [6]. Also, the pest or weed control at 125 g/ha in assay [14] was found to be 80%.

Take `CC#Cc1cc(C)c(C2=C(OC(=O)OC)CC(c3ccccn3)CC2=O)c(C)c1` (stereo not shown) [Compound A-14]: the pest or weed control at 250 g/ha in [1] turned out to be 100%; in assay [2], 100%; in assay [7], 80%; in [8], 70%; in [9] it was 100%; in assay [10], 100%. The pest or weed control at 250 g/ha in [11] turned out to be 80%; in assay [12] it was 80%; in [13], 90%. For the same compound, the plant injury at 250 g/ha was 30% in [3], 60% in assay [4], 40% in assay [5] and 20% in [6]. The compound further registered a pest or weed control at 30 g/ha in assay [14] of 80%. Moreover, the pest or weed control at 125 g/ha in [14] was determined as 100%.

For the compound `CC#Cc1cc(C)c(C2=C(OC(C)=O)CC(c3ccccn3)CC2=O)c(C)c1` (stereo not shown) [Compound A-15], the results for the pest or weed control at 30 g/ha in assay [1], in assay [2] and in [14] were 90%, 100% and 80%, respectively. The pest or weed control at 250 g/ha in assay [1] and in assay [2] was 100% throughout. The plant injury at 125 g/ha in [3] was 0%; in [4], 80%; in assay [5], 0%; in assay [6], 10%. The pest or weed control at 125 g/ha in assay [7] came to 80%; in assay [8], 50%; in assay [9] it was 90%; in assay [10], 100%; in [11], 80%; in [12] it was 80%. In addition, the pest or weed control at 125 g/ha in [13] came out at 80%; in assay [14], 100%.
